Source: PubChem BioAssay AID2060493 (Molecular Pharmacology Branch, DTP, NCI, 2025)
pIC50: −log10 of the molar value.

System: 616215-338-R-J1-PDC tumor spheroids, viability
Assay: Anticancer human tumor 616215-338-R-J1-PDC patient-derived colon adenocarcinoma cell line growth inhibition [GQUAD]
Details: spheroids with HUVEC and MSC; for pIC50: curve of first compound; for viability, T/C: stronger effect = lower value
How it was run: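 Multi-cell-type spheroids of tumor cells with HUVEC and mesenchymal stem cells, treated with drug combinations. Concentrations descend in half-log steps from near clinical Cmax, or from 10 microM where Cmax is unknown; viability read-out.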

[1] = second compound 0.0316 µM, first compound 0.0316 µM
[2] = second compound 0.0316 µM, first compound 0.316 µM
[3] = second compound 0.1 µM, first compound 0.0316 µM
[4] = second compound 0.1 µM, first compound 0.316 µM
[5] = second compound 0.316 µM, first compound 0.0316 µM
[6] = second compound 0.316 µM, first compound 0.316 µM
[7] = second compound 1 µM, first compound 0.0316 µM
[8] = second compound 1 µM, first compound 0.316 µM
[9] = second compound 3.16 µM, first compound 0.0316 µM
[10] = second compound 3.16 µM, first compound 0.316 µM
[11] = second compound 10 µM, first compound 0.0316 µM
[12] = second compound 10 µM, first compound 0.316 µM
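Note: spheroids exposed to agents for 7 days before readout.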
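Throughout, for viability, T/C: percent viability relative to DMSO vehicle control wells taken as 100%.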

Question: `C=CC(=O)N1CCN(c2nc(=O)n(-c3c(C)ccnc3C(C)C)c3nc(-c4c(O)cccc4F)c(F)cc23)C(C)C1` (centres undefined) + Cc1[nH]c2ccc(F)cc2c1-c1nc2c3cccnc3c3ncccc3c2[nH]1 was tested. Which pIC50 (second compound 0.0316 µM) did it give?
Answer: < 5.00

Question: What about the pIC50 (second compound 0.1 µM) of the same molecule?
Answer: < 5.00

Question: What about the pIC50 (second compound 0.316 µM) of the same molecule?
Answer: < 5.00

Question: And the pIC50 (second compound 1 µM)?
Answer: < 5.00

Question: And the pIC50 (second compound 3.16 µM)?
Answer: < 5.00

Question: And the pIC50 (second compound 10 µM)?
Answer: < 5.00

Question: What about the viability, T/C [1] of the same molecule?
Answer: 102%

Question: What about the viability, T/C (second compound 0.0316 µM, first compound 0.1 µM) of the same molecule?
Answer: 95%

Question: What about the viability, T/C [2] of the same molecule?
Answer: 97.3%

Question: And the viability, T/C (second compound 0.0316 µM, first compound 1 µM)?
Answer: 104%

Question: And the viability, T/C (second compound 0.0316 µM, first compound 3.16 µM)?
Answer: 89.7%

Question: What about the viability, T/C (second compound 0.0316 µM, first compound 10 µM) of the same molecule?
Answer: 82.1%

Question: What about the viability, T/C [3] of the same molecule?
Answer: 102%

Question: What about the viability, T/C (second compound 0.1 µM, first compound 0.1 µM) of the same molecule?
Answer: 92.5%

Question: What about the viability, T/C [4] of the same molecule?
Answer: 102%

Question: What about the viability, T/C (second compound 0.1 µM, first compound 1 µM) of the same molecule?
Answer: 96.9%

Question: And the viability, T/C (second compound 0.1 µM, first compound 3.16 µM)?
Answer: 93.9%

Question: And the viability, T/C (second compound 0.1 µM, first compound 10 µM)?
Answer: 71.6%

Question: And the viability, T/C [5]?
Answer: 87.4%

Question: What about the viability, T/C (second compound 0.316 µM, first compound 0.1 µM) of the same molecule?
Answer: 98.6%

Question: And the viability, T/C [6]?
Answer: 96.8%

Question: What about the viability, T/C (second compound 0.316 µM, first compound 1 µM) of the same molecule?
Answer: 108%

Question: And the viability, T/C (second compound 0.316 µM, first compound 3.16 µM)?
Answer: 88.6%

Question: What about the viability, T/C (second compound 0.316 µM, first compound 10 µM) of the same molecule?
Answer: 67.7%

Question: What about the viability, T/C [7] of the same molecule?
Answer: 99.7%

Question: And the viability, T/C (second compound 1 µM, first compound 0.1 µM)?
Answer: 93.2%

Question: What about the viability, T/C [8] of the same molecule?
Answer: 90.8%

Question: What about the viability, T/C (second compound 1 µM, first compound 1 µM) of the same molecule?
Answer: 105%

Question: What about the viability, T/C (second compound 1 µM, first compound 3.16 µM) of the same molecule?
Answer: 92.5%

Question: What about the viability, T/C (second compound 1 µM, first compound 10 µM) of the same molecule?
Answer: 71.8%

Question: What about the viability, T/C [9] of the same molecule?
Answer: 100%

Question: What about the viability, T/C (second compound 3.16 µM, first compound 0.1 µM) of the same molecule?
Answer: 88.2%

Question: What about the viability, T/C [10] of the same molecule?
Answer: 107%

Question: And the viability, T/C (second compound 3.16 µM, first compound 1 µM)?
Answer: 88.3%

Question: What about the viability, T/C (second compound 3.16 µM, first compound 3.16 µM) of the same molecule?
Answer: 87.6%

Question: And the viability, T/C (second compound 3.16 µM, first compound 10 µM)?
Answer: 59.1%

Question: And the viability, T/C [11]?
Answer: 99.7%

Question: What about the viability, T/C (second compound 10 µM, first compound 0.1 µM) of the same molecule?
Answer: 84.9%

Question: What about the viability, T/C [12] of the same molecule?
Answer: 88%

Question: And the viability, T/C (second compound 10 µM, first compound 1 µM)?
Answer: 90.2%

Question: And the viability, T/C (second compound 10 µM, first compound 3.16 µM)?
Answer: 86.2%

Question: What about the viability, T/C (second compound 10 µM, first compound 10 µM) of the same molecule?
Answer: 69.2%

Question: How did the pIC50 (second compound 0.0316 µM) turn out when `CC[C@@]1(O)C(=O)OCc2c1cc1n(c2=O)Cc2cc3c(CN(C)C)c(O)ccc3nc2-1` + Cc1[nH]c2ccc(F)cc2c1-c1nc2c3cccnc3c3ncccc3c2[nH]1 was run?
Answer: 6.52

Question: What about the pIC50 (second compound 0.1 µM) of the same molecule?
Answer: < 6.50

Question: And the pIC50 (second compound 0.316 µM)?
Answer: 6.63

Question: What about the pIC50 (second compound 1 µM) of the same molecule?
Answer: < 6.50

Question: And the pIC50 (second compound 3.16 µM)?
Answer: 6.58

Question: What about the pIC50 (second compound 10 µM) of the same molecule?
Answer: 6.73

Question: And the viability, T/C (second compound 0.0316 µM, first compound 0.000999 µM)?
Answer: 102%

Question: What about the viability, T/C (second compound 0.0316 µM, first compound 0.00316 µM) of the same molecule?
Answer: 99.7%

Question: What about the viability, T/C (second compound 0.0316 µM, first compound 0.00999 µM) of the same molecule?
Answer: 103%

Question: What about the viability, T/C [1] of the same molecule?
Answer: 99.4%

Question: And the viability, T/C (second compound 0.0316 µM, first compound 0.0999 µM)?
Answer: 90.5%

Question: And the viability, T/C [2]?
Answer: 48.2%

Question: And the viability, T/C (second compound 0.1 µM, first compound 0.000999 µM)?
Answer: 105%

Question: And the viability, T/C (second compound 0.1 µM, first compound 0.00316 µM)?
Answer: 111%

Question: What about the viability, T/C (second compound 0.1 µM, first compound 0.00999 µM) of the same molecule?
Answer: 97%

Question: What about the viability, T/C [3] of the same molecule?
Answer: 101%

Question: And the viability, T/C (second compound 0.1 µM, first compound 0.0999 µM)?
Answer: 89.5%

Question: What about the viability, T/C [4] of the same molecule?
Answer: 55.2%

Question: What about the viability, T/C (second compound 0.316 µM, first compound 0.000999 µM) of the same molecule?
Answer: 88.9%

Question: What about the viability, T/C (second compound 0.316 µM, first compound 0.00316 µM) of the same molecule?
Answer: 109%

Question: What about the viability, T/C (second compound 0.316 µM, first compound 0.00999 µM) of the same molecule?
Answer: 100%

Question: What about the viability, T/C [5] of the same molecule?
Answer: 101%

Question: What about the viability, T/C (second compound 0.316 µM, first compound 0.0999 µM) of the same molecule?
Answer: 79.8%

Question: And the viability, T/C [6]?
Answer: 38.9%

Question: What about the viability, T/C (second compound 1 µM, first compound 0.000999 µM) of the same molecule?
Answer: 93%

Question: And the viability, T/C (second compound 1 µM, first compound 0.00316 µM)?
Answer: 108%

Question: What about the viability, T/C (second compound 1 µM, first compound 0.00999 µM) of the same molecule?
Answer: 95.3%

Question: And the viability, T/C [7]?
Answer: 97.7%

Question: And the viability, T/C (second compound 1 µM, first compound 0.0999 µM)?
Answer: 90.9%

Question: And the viability, T/C [8]?
Answer: 51.1%

Question: What about the viability, T/C (second compound 3.16 µM, first compound 0.000999 µM) of the same molecule?
Answer: 88.8%

Question: What about the viability, T/C (second compound 3.16 µM, first compound 0.00316 µM) of the same molecule?
Answer: 89.9%

Question: What about the viability, T/C (second compound 3.16 µM, first compound 0.00999 µM) of the same molecule?
Answer: 92%

Question: What about the viability, T/C [9] of the same molecule?
Answer: 95.5%

Question: What about the viability, T/C (second compound 3.16 µM, first compound 0.0999 µM) of the same molecule?
Answer: 87%

Question: And the viability, T/C [10]?
Answer: 42.6%

Question: And the viability, T/C (second compound 10 µM, first compound 0.000999 µM)?
Answer: 98.2%

Question: What about the viability, T/C (second compound 10 µM, first compound 0.00316 µM) of the same molecule?
Answer: 110%

Question: And the viability, T/C (second compound 10 µM, first compound 0.00999 µM)?
Answer: 87.8%

Question: What about the viability, T/C [11] of the same molecule?
Answer: 94.5%

Question: And the viability, T/C (second compound 10 µM, first compound 0.0999 µM)?
Answer: 71.4%

Question: And the viability, T/C [12]?
Answer: 31.4%
